These compounds were tested on SKOV-3 cells (assay: Survival MTT assay). Details: Homo sapiens, SK-OV-3, 72 hours.
Assay type: cell-based
Experimental: One day prior the treatment with compound, 2000 to 4000 cells per well were plated in a tissue culture treated 96 well format dish with 100 uL of media and incubated at 37° C., 5% CO2. On the day of compound treatment, compounds were diluted with cell culture media to a working stock concentration of 2×. 100 ul of diluted compound were then added to each well. The treated plate was incubated for 72 hours at 37° C., 5% CO2. Upon incubation, the cell viability was assessed as follows; 20 uL of MTT reagent (5 mg/mL) were added per well to cell plate. The plate was incubated for 2 hrs at 37° C. in presence of 5% CO2. The supernatant was then removed from the plate and 100 uL of isopropanol was added. The absorbance was measured in a TECAN spectrophotometer at 570 nm. The percentage of viability was expressed in percentage of the signal obtained with non treated cells.

CN[C@@H](C)C(=O)N[C@H](C(=O)N1CCC[C@H]1CN(CCc1ccc(F)cc1)C(=O)CNC(=O)c1ccc(-c2ccc(C(=O)NCC(=O)N(CCc3ccc(F)cc3)C[C@@H]3CCCN3C(=O)[C@@H](NC(=O)[C@H](C)NC)C(C)(C)C)cc2)cc1)C(C)(C)C [Compound 76] and CN[C@@H](C)C(=O)N[C@H](C(=O)N1CCC[C@H]1CN(CCc1ccc(F)cc1)C(=O)CNC(=O)c1ccc(C(=O)NCC(=O)N(CCc2ccc(F)cc2)C[C@@H]2CCCN2C(=O)[C@@H](NC(=O)[C@H](C)NC)C(C)(C)C)cc1)C(C)(C)C [Compound 71] cannot be ordered by EC50: under 10 nM for the first, under 10 nM for the second.

Compared with CN[C@@H](C)C(=O)N[C@H](C(=O)N1CCC[C@H]1CN(CCc1ccccc1)C(=O)c1ccc(-c2cccc(C(=O)N(CCc3ccccc3)C[C@@H]3CCCN3C(=O)[C@@H](NC(=O)[C@H](C)NC)C(C)(C)C)c2)cc1)C(C)(C)C [Compound 64], CN[C@@H](C)C(=O)N[C@H](C(=O)N1CCC[C@H]1CN(CCc1ccccc1)C(=O)c1ccc(-c2ccc(C(=O)N(CCc3ccccc3)C[C@@H]3CCCN3C(=O)[C@@H](NC(=O)[C@H](C)NC)C(C)(C)C)cc2)cc1)C(C)(C)C [Compound 4] is lower in EC50: 10 to 25 nM for the first, under 10 nM for the second. The second is the more potent here.

CN[C@@H](C)C(=O)N[C@H](C(=O)N1CCC[C@H]1C(=O)N(CCc1ccccc1)Cc1ccc(CN(CCc2ccccc2)C(=O)[C@@H]2CCCN2C(=O)[C@@H](NC(=O)[C@H](C)NC)C(C)(C)C)cc1)C(C)(C)C [Compound 79] and CN[C@@H](C)C(=O)N[C@H](C(=O)N1CCC[C@H]1CN(CCc1ccccc1)C(=O)c1ccc(C(=O)N(CCc2ccccc2)C[C@@H]2CCCN2C(=O)[C@@H](NC(=O)[C@H](C)NC)C(C)(C)C)cc1)C(C)(C)C [Compound 1] fall in the same range of EC50: 10 to 25 nM for the first, 10 to 25 nM for the second.

Compared with CN[C@@H](C)C(=O)N[C@H](C(=O)N1CCC[C@H]1CN(Cc1cccc(-c2ccccc2)c1)C(=O)CCCCCCCCC(=O)N(Cc1cccc(-c2ccccc2)c1)C[C@@H]1CCCN1C(=O)[C@@H](NC(=O)[C@H](C)NC)C(C)(C)C)C(C)(C)C [Compound 75], CN[C@@H](C)C(=O)N[C@H](C(=O)N1CCC[C@H]1CN(CCc1ccccc1)C(=O)CCCCCCCCC(=O)N(CCc1ccccc1)C[C@@H]1CCCN1C(=O)[C@@H](NC(=O)[C@H](C)NC)C(C)(C)C)C(C)(C)C [Compound 2] is lower in EC50: 10 to 25 nM for the first, under 10 nM for the second. The second is the more potent here.

CN[C@@H](C)C(=O)N[C@H](C(=O)N1CCC[C@H]1CN(CCc1ccccc1)C(=O)CCCCCCC(=O)N(CCc1ccccc1)C[C@@H]1CCCN1C(=O)[C@@H](NC(=O)[C@H](C)NC)C(C)(C)C)C(C)(C)C [Compound 7] and CN[C@@H](C)C(=O)N[C@H](C(=O)N1CCC[C@H]1CN(CCc1ccccc1)C(=O)CCCC(=O)N(CCc1ccccc1)C[C@@H]1CCCN1C(=O)[C@@H](NC(=O)[C@H](C)NC)C(C)(C)C)C(C)(C)C [Compound 3] fall in the same range of EC50: 10 to 25 nM for the first, 10 to 25 nM for the second.

CN[C@@H](C)C(=O)N[C@H](C(=O)N1CCC[C@H]1CN(CCc1ccccc1)C(=O)[C@H]1CCCN1C(=O)c1ccc(C(=O)N2CCC[C@@H]2C(=O)N(CCc2ccccc2)C[C@@H]2CCCN2C(=O)[C@@H](NC(=O)[C@H](C)NC)C(C)(C)C)cc1)C(C)(C)C [Compound 81] and CN[C@@H](C)C(=O)N[C@H](C(=O)N1CCC[C@H]1CN(CCc1ccccc1)C(=O)[C@H](C)NC(=O)c1ccc(C(=O)N[C@@H](C)C(=O)N(CCc2ccccc2)C[C@@H]2CCCN2C(=O)[C@@H](NC(=O)[C@H](C)NC)C(C)(C)C)cc1)C(C)(C)C [Compound 62] cannot be ordered by EC50: over 25 nM for the first, over 25 nM for the second.

CN[C@@H](C)C(=O)N[C@H](C(=O)N1CCC[C@H]1CN(CCc1ccccc1)C(=O)CNC(=O)c1ccc2cc(C(=O)NCC(=O)N(CCc3ccccc3)C[C@@H]3CCCN3C(=O)[C@@H](NC(=O)[C@H](C)NC)C(C)(C)C)ccc2c1)C(C)(C)C [Compound 63] and CN[C@@H](C)C(=O)N[C@H](C(=O)N1CCC[C@H]1CN(CCc1ccccc1)C(=O)CNC(=O)c1ccc2ccc(C(=O)NCC(=O)N(CCc3ccccc3)C[C@@H]3CCCN3C(=O)[C@@H](NC(=O)[C@H](C)NC)C(C)(C)C)cc2c1)C(C)(C)C [Compound 85] cannot be ordered by EC50: under 10 nM for the first, under 10 nM for the second.

CN[C@@H](C)C(=O)N[C@H](C(=O)N1CCC[C@H]1CN(CCc1ccccc1)S(=O)(=O)c1ccc(-c2ccc(S(=O)(=O)N(CCc3ccccc3)C[C@@H]3CCCN3C(=O)[C@@H](NC(=O)[C@H](C)NC)C(C)(C)C)cc2)cc1)C(C)(C)C [Compound 13] and CN[C@@H](C)C(=O)N[C@H](C(=O)N1CCC[C@H]1CN(CCc1ccccc1)S(=O)(=O)c1ccc2ccc(S(=O)(=O)N(CCc3ccccc3)C[C@@H]3CCCN3C(=O)[C@@H](NC(=O)[C@H](C)NC)C(C)(C)C)cc2c1)C(C)(C)C [Compound 90] fall in the same range of EC50: 10 to 25 nM for the first, 10 to 25 nM for the second.

First: CN[C@@H](C)C(=O)N[C@H](C(=O)N1CCC[C@H]1CN(CCc1ccccc1)C(=O)CNC(=O)CCCCC(=O)NCC(=O)N(CCc1ccccc1)C[C@@H]1CCCN1C(=O)[C@@H](NC(=O)[C@H](C)NC)C(C)(C)C)C(C)(C)C [Compound 50]
Second: CN[C@@H](C)C(=O)N[C@H](C(=O)N1CCC[C@H]1CN(CCc1ccccc1)C(=O)CCC(=O)N(CCc1ccccc1)C[C@@H]1CCCN1C(=O)[C@@H](NC(=O)[C@H](C)NC)C(C)(C)C)C(C)(C)C [Compound 6]
The EC50 of the first is lower: 10 to 25 nM for the first, over 25 nM for the second. The first is the more potent here.

CN[C@@H](C)C(=O)N[C@H](C(=O)N1CCC[C@H]1CN(CCc1ccc(F)cc1)C(=O)CNC(=O)C(=O)NCC(=O)N(CCc1ccc(F)cc1)C[C@@H]1CCCN1C(=O)[C@@H](NC(=O)[C@H](C)NC)C(C)(C)C)C(C)(C)C [Compound 73] and CN[C@@H](C)C(=O)N[C@H](C(=O)N1CCC[C@H]1CN(CCc1ccc(F)cc1)C(=O)CNC(=O)c1cccc(C(=O)NCC(=O)N(CCc2ccc(F)cc2)C[C@@H]2CCCN2C(=O)[C@@H](NC(=O)[C@H](C)NC)C(C)(C)C)c1)C(C)(C)C [Compound 83] cannot be ordered by EC50: under 10 nM for the first, under 10 nM for the second.

CN[C@@H](C)C(=O)N[C@H](C(=O)N1CCC[C@H]1CN(CCc1ccc(F)cc1)C(=O)CCC(=O)N(CCc1ccc(F)cc1)C[C@@H]1CCCN1C(=O)[C@@H](NC(=O)[C@H](C)NC)C(C)(C)C)C(C)(C)C [Compound 48] and CN[C@@H](C)C(=O)N[C@H](C(=O)N1CCC[C@H]1CN(CCc1ccc(F)cc1)C(=O)c1ccc(-c2ccc(C(=O)N(CCc3ccc(F)cc3)C[C@@H]3CCCN3C(=O)[C@@H](NC(=O)[C@H](C)NC)C(C)(C)C)cc2)cc1)C(C)(C)C [Compound 58] fall in the same range of EC50: 10 to 25 nM for the first, 10 to 25 nM for the second.

First: CN[C@@H](C)C(=O)N[C@H](C(=O)N1CCC[C@H]1CN(CCc1ccccc1F)C(=O)CCCCCCCCC(=O)N(CCc1ccccc1F)C[C@@H]1CCCN1C(=O)[C@@H](NC(=O)[C@H](C)NC)C(C)(C)C)C(C)(C)C [Compound 46]
Second: CN[C@@H](C)C(=O)N[C@H](C(=O)N1CCC[C@H]1CN(CCc1ccccc1)C(=O)CCCCCCCCCCC(=O)N(CCc1ccccc1)C[C@@H]1CCCN1C(=O)[C@@H](NC(=O)[C@H](C)NC)C(C)(C)C)C(C)(C)C [Compound 18]
The EC50 of the first is lower: under 10 nM for the first, 10 to 25 nM for the second. The first is the more potent here.

First: CN[C@@H](C)C(=O)N[C@H](C(=O)N1CCC[C@H]1CN(CCc1ccccc1)C(=O)c1ccc(Oc2ccc(C(=O)N(CCc3ccccc3)C[C@@H]3CCCN3C(=O)[C@@H](NC(=O)[C@H](C)NC)C(C)(C)C)cc2)cc1)C(C)(C)C [Compound 27]
Second: CN[C@@H](C)C(=O)N[C@H](C(=O)N1CCC[C@H]1CN(CCc1ccccc1)C(=O)CN(C)C(=O)c1ccc(-c2ccc(C(=O)N(C)CC(=O)N(CCc3ccccc3)C[C@@H]3CCCN3C(=O)[C@@H](NC(=O)[C@H](C)NC)C(C)(C)C)cc2)cc1)C(C)(C)C [Compound 77]
The EC50 of the first is higher: over 25 nM for the first, 10 to 25 nM for the second.

CN[C@@H](C)C(=O)N[C@H](C(=O)N1CCC[C@H]1CN(CCc1ccccc1)S(=O)(=O)c1cccc(S(=O)(=O)N(CCc2ccccc2)C[C@@H]2CCCN2C(=O)[C@@H](NC(=O)[C@H](C)NC)C(C)(C)C)c1)C(C)(C)C [Compound 36] and CN[C@@H](C)C(=O)N[C@H](C(=O)N1CCC[C@H]1CN(CCc1ccccc1)S(=O)(=O)c1ccc2cc(S(=O)(=O)N(CCc3ccccc3)C[C@@H]3CCCN3C(=O)[C@@H](NC(=O)[C@H](C)NC)C(C)(C)C)ccc2c1)C(C)(C)C [Compound 92] cannot be ordered by EC50: under 10 nM for the first, under 10 nM for the second.

Compared with CN[C@@H](C)C(=O)N[C@H](C(=O)N1CCC[C@H]1CN(C[C@@H](C)c1ccccc1)C(=O)CCCCCCCCC(=O)N(C[C@@H]1CCCN1C(=O)[C@@H](NC(=O)[C@H](C)NC)C(C)(C)C)C[C@@H](C)c1ccccc1)C(C)(C)C [Compound 22], CN[C@@H](C)C(=O)N[C@H](C(=O)N1CCC[C@H]1CN(CCc1ccccc1)C(=O)CN(C)Cc1ccc(CN(C)CC(=O)N(CCc2ccccc2)C[C@@H]2CCCN2C(=O)[C@@H](NC(=O)[C@H](C)NC)C(C)(C)C)cc1)C(C)(C)C [Compound 43] is lower in EC50: over 25 nM for the first, 10 to 25 nM for the second.

Going from CN[C@@H](C)C(=O)N[C@H](C(=O)N1CCC[C@H]1CN(CCc1ccccc1)C(=O)CNC(=O)c1cccc(C(=O)NCC(=O)N(CCc2ccccc2)C[C@@H]2CCCN2C(=O)[C@@H](NC(=O)[C@H](C)NC)C(C)(C)C)n1)C(C)(C)C [Compound 88] to CN[C@@H](C)C(=O)N[C@H](C(=O)N1CCC[C@H]1CN(CCc1ccccc1)C(=O)[C@@H](C)NC(=O)c1ccc(C(=O)N[C@H](C)C(=O)N(CCc2ccccc2)C[C@@H]2CCCN2C(=O)[C@@H](NC(=O)[C@H](C)NC)C(C)(C)C)cc1)C(C)(C)C [Compound 59], the EC50 falls from over 25 nM to under 10 nM.

Compared with CN[C@@H](C)C(=O)N[C@H](C(=O)N1CCC[C@H]1CN(CCc1ccc(F)cc1)S(=O)(=O)c1cccc(S(=O)(=O)N(CCc2ccc(F)cc2)C[C@@H]2CCCN2C(=O)[C@@H](NC(=O)[C@H](C)NC)C(C)(C)C)c1)C(C)(C)C [Compound 57], CN[C@@H](C)C(=O)N[C@@H](CC1CCCCC1)C(=O)N1CCC[C@H]1CN(CCc1ccccc1)C(=O)CCCCCCCCC(=O)N(CCc1ccccc1)C[C@@H]1CCCN1C(=O)[C@H](CC1CCCCC1)NC(=O)[C@H](C)NC [Compound 9] is higher in EC50: 10 to 25 nM for the first, over 25 nM for the second.

Source: patent US8648094B2, “IAP BIR domain binding compounds” (Pharmascience, Inc., priority 2006, dated 2014)
